This is an account of results in patent publication EP4273147A1, “SUBSTITUTED SPIROLACTAMS, SALTS THEREOF AND THEIR USE AS HERBICIDALLY ACTIVE SUBSTANCES” (Bayer Aktiengesellschaft, priority 2022, dated 2023).

SMILES strings stand for the structures.

Data set [1] has as its system ECHCG. Description: Herbicidal pre-emergence action (Table A2). The format is in vivo, Echinochloa crus-galli. The following applies: visual grading after ca. 3 weeks. The gist of the method:
(§1)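 Sandy loam filled the pots; weed seeds went in as paired sowings of one grass-type and one broadleaf species, then were covered with soil.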

In data set [2] the test system is LOLRI. The data set can be described thus: Herbicidal pre-emergence action (Table A3). The format is in vivo, Lolium rigidum. The following applies: visual grading after ca. 3 weeks. A digest of the protocol:
as §1

The test system of data set [3] is MATIN. The data set can be described thus: Herbicidal pre-emergence action (Table A4). The format is in vivo, Matricaria inodora. The following applies: application rate 1280 g/ha; visual grading after ca. 3 weeks. A digest of the protocol: as §1
The test system of data set [4] is SETVI. Description: Herbicidal pre-emergence action (Table A5). The format is in vivo, Setaria viridis. The following applies: visual grading after ca. 3 weeks. The gist of the method: as §1
Data set [5] deals with STEME. Description: Herbicidal pre-emergence action (Table A6). The format is in vivo, Stellaria media. As to conditions: visual grading after ca. 3 weeks. A digest of the protocol:
as §1

For data set [6], the system named is POAAN. The data set can be described thus: Herbicidal pre-emergence action (Table A7). The format is in vivo, Poa annua. As to conditions: visual grading after ca. 3 weeks. The gist of the method:
as §1

Data set [7] has as its system KCHSC. Description: Herbicidal pre-emergence action (Table A10). As to conditions: application rate 320 g/ha; visual grading after ca. 3 weeks. The class given is in vivo, Kochia scoparia. From the text:
(§2) Seeds of mono- and dicotyledonous weed plants were sown in plastic pots (double sowings with one species of mono- and one species of dicotyledonous weed plants per pot), in sandy loam, and covered with soil.

For data set [8], the system named is ALOMY. The data set can be described thus: Herbicidal pre-emergence action, section C (Table C2). The following applies: application rate 320 g/ha; visual grading after ca. 3 weeks. The format is in vivo, Alopecurus myosuroides.
Data set [9] has as its system ECHCG. The data set can be described thus: Herbicidal pre-emergence action, section C (Table C6). The format is in vivo, Echinochloa crus-galli. The following applies: application rate 320 g/ha; visual grading after ca. 3 weeks.
In data set [10] the test system is SETVI. The data set can be described thus: Herbicidal pre-emergence action, section C (Table C10). The format is in vivo, Setaria viridis. As to conditions: visual grading after ca. 3 weeks.
Data set [11] concerns TRZAS. The data set can be described thus: Pre-emergence effects on crop plants (Table D2). The class given is in vivo, Triticum aestivum. As to conditions: crop plant, visual grading after ca. 3 weeks.
Data set [12] deals with GLXMA. Description: Pre-emergence effects on crop plants (Table D4). The class given is in vivo, Glycine max. As to conditions: crop plant, visual grading after ca. 3 weeks.
Description: Seeds of mono- and dicotyledonous weed plants and crop plants were sown, in plastic or organic planting pots, in sandy loam and covered with soil. The compounds according to the invention, formulated in the form of wettable powders (WP) or as emulsifiable concentrates (EC), were applied to the surface of the covering soil as aqueous suspension or emulsion, with the addition of 0.5% of an additive, at an application rate of 600 1 of water/ha (converted).
Following treatment, the pots were placed in a greenhouse and kept under optimum growth conditions for the test plants.
For data set [13], the system named is BRSNW. The data set can be described thus: Pre-emergence effects on crop plants (Table D5). The following applies: crop plant, visual grading after ca. 3 weeks. The class given is in vivo, Brassica napus.
In data set [14] the test system is ZEAMX. The data set can be described thus: Post-emergence effects on crop plants (Table F1). The format is in vivo, Zea mays. As to conditions: application rate 320 g/ha, crop plant ZEAMX. From the text: (§3) 2 to 3 weeks after sowing, the test plants were sprayed in the single-leaf stage.
The subject of data set [15] is TRZAS. The data set can be described thus: Post-emergence effects on crop plants (Table F2). The format is in vivo, Triticum aestivum. The following applies: application rate 320 g/ha, crop plant TRZAS.
Description: as §3

Data set [16] has as its system ORYZA. Description: Post-emergence effects on crop plants (Table F3). The format is in vivo, Oryza sativa. The following applies: application rate 320 g/ha, crop plant ORYZA.
Description: as §3

For data set [17], the system named is GLXMA. Description: Post-emergence effects on crop plants (Table F4). The class given is in vivo, Glycine max. The following applies: crop plant GLXMA.
Description: as §3

Data set [18] concerns BRSNW. The data set can be described thus: Post-emergence effects on crop plants (Table F5). The following applies: application rate 320 g/ha, crop plant BRSNW. The format is in vivo, Brassica napus.
Description: as §3

For data set [19], the system named is DIGSA. The data set can be described thus: Herbicidal pre-emergence action, section C (Table C5). The class given is in vivo, Digitaria sanguinalis. As to conditions: visual grading after ca. 3 weeks.
Description: Seeds of mono- and dicotyledonous weed plants and crop plants were sown, in plastic or organic planting pots, in sandy loam and covered with soil. The compounds according to the invention, formulated in the form of wettable powders (WP) or as emulsifiable concentrates (EC), were applied to the surface of the covering soil as aqueous suspension or emulsion, with the addition of 0.5% of an additive, at an application rate of 600 1 of water/ha (converted). Following treatment, the pots were placed in a greenhouse and kept under optimum growth conditions for the test plants.
The subject of data set [20] is LOLRI. Description: Herbicidal pre-emergence action, section C (Table C7). The format is in vivo, Lolium rigidum. The following applies: application rate 320 g/ha; visual grading after ca. 3 weeks.
Data set [21] concerns VERPE. The data set can be described thus: Herbicidal pre-emergence action, section C (Table C11). The following applies: application rate 80 g/ha; visual grading after ca. 3 weeks. The class given is in vivo, Veronica persica.
Data set [22] has as its system VIOTR. The data set can be described thus: Herbicidal pre-emergence action, section C (Table C12). The class given is in vivo, Viola tricolor. The following applies: application rate 320 g/ha; visual grading after ca. 3 weeks.
Data set [23] concerns ZEAMX. The data set can be described thus: Pre-emergence effects on crop plants (Table D1). The following applies: crop plant, visual grading after ca. 3 weeks. The class given is in vivo, Zea mays.
The test system of data set [24] is ECHCG. Description: Herbicidal post-emergence action, section E (Table E5). The format is in vivo, Echinochloa crus-galli. As to conditions: application rate 320 g/ha; assessed visually after ca. 3 weeks.
Description: as §3

Data set [25] relates to ORYZA. The data set can be described thus: Pre-emergence effects on crop plants (Table D3). As to conditions: crop plant; application rate 80 g/ha; visual grading after ca. 3 weeks.
In data set [26] the test system is ALOMY. Description: Herbicidal pre-emergence action (Table A9). As to conditions: application rate 1280 g/ha; visual grading after ca. 3 weeks. The format is in vivo, Alopecurus myosuroides.
Description: as §2

Data set [27] has as its system VERPE. The data set can be described thus: Herbicidal pre-emergence action (Table A11). As to conditions: application rate 1280 g/ha; visual grading after ca. 3 weeks. The class given is in vivo, Veronica persica.
Description: as §2

In data set [28] the test system is DIGSA. The data set can be described thus: Herbicidal pre-emergence action (Table A12). As to conditions: application rate 1280 g/ha; visual grading after ca. 3 weeks. The class given is in vivo, Digitaria sanguinalis. The gist of the method:
as §1

For the compound `O=C1N(Cc2ccsc2)CCCC12CCCN(Cc1cccc(F)c1F)C2=O` (racemic) [I-072], the “pre-emergence activity against ECHCG” value in data set [1] (application rate 320 g/ha) and in data set [9] was 100% in each case. The “pre-emergence activity against LOLRI” value in data set [2] (application rate 320 g/ha) stood at 100%. Further, the “pre-emergence activity against MATIN” value in [3] was found to be 90%. The “pre-emergence activity against SETVI” value in data set [4] (application rate 1280 g/ha) is 90%; in data set [10] (application rate 80 g/ha), 100%. The “pre-emergence activity against STEME” value in [5] (application rate 1280 g/ha) amounted to 90%. In data set [6] (application rate 1280 g/ha), the “pre-emergence activity against POAAN” value worked out at 90%. Besides, the “pre-emergence activity against KCHSC” value in [7] is given as 90%. Moreover, the “pre-emergence activity against ALOMY” value in data set [8] worked out at 80%. In addition, the “pre-emergence activity against TRZAS” value in data set [11] (application rate 80 g/ha) is reported as 10%. Besides, the “pre-emergence activity against GLXMA” value in data set [12] (application rate 80 g/ha) is listed as 0%. Further, in data set [13] (application rate 80 g/ha), the “pre-emergence activity against BRSNW” value was 20%. Further, the “post-emergence activity against ZEAMX” value in data set [14] is recorded as 0%. The “post-emergence activity against TRZAS” value in [15] came to 0%. Also, the “post-emergence activity against ORYZA” value in data set [16] is on record as 0%. Besides, the “post-emergence activity against GLXMA” value in data set [17] (application rate 320 g/ha) is listed as 0%. Besides, in [18], the “post-emergence activity against BRSNW” value was found to be 0%.
As for `O=C1N(Cc2ccc(F)cc2F)CCCC12CCCN(Cc1ccc(F)cc1F)C2=O` (racemic) [I-021], the “pre-emergence activity against ECHCG” value in data set [1] (application rate 1280 g/ha) and in [9] was 100% in each case. For the same compound, the “pre-emergence activity against LOLRI” value in data set [2] (application rate 320 g/ha) and in [20] was 100% throughout. For the same compound, the “pre-emergence activity against SETVI” value in data set [4] (application rate 320 g/ha) and in [10] (application rate 320 g/ha) was 100% in each case. Besides, in data set [5] (application rate 320 g/ha), the “pre-emergence activity against STEME” value was 90%. In addition, the “pre-emergence activity against POAAN” value in [6] (application rate 320 g/ha) came to 90%. In data set [8], the “pre-emergence activity against ALOMY” value was 100%. Also, the “pre-emergence activity against DIGSA” value in data set [19] (application rate 80 g/ha) came to 90%. Moreover, the “pre-emergence activity against VERPE” value in data set [21] is 100%. Moreover, the “pre-emergence activity against VIOTR” value in data set [22] was found to be 80%. Besides, the “pre-emergence activity against ZEAMX” value in data set [23] (application rate 80 g/ha) is 0%. Further, the “pre-emergence activity against TRZAS” value in data set [11] (application rate 80 g/ha) was found to be 0%. Further, the “pre-emergence activity against GLXMA” value in data set [12] (application rate 320 g/ha) is recorded as 10%. Further, the “pre-emergence activity against BRSNW” value in [13] (application rate 320 g/ha) turned out to be 20%. In addition, the “post-emergence activity against ECHCG” value in data set [24] came out at 80%. The “post-emergence activity against ZEAMX” value in data set [14] came to 10%. In addition, in [15], the “post-emergence activity against TRZAS” value stood at 0%. Besides, the “post-emergence activity against ORYZA” value in [16] is on record as 0%. In addition, the “post-emergence activity against GLXMA” value in data set [17] (application rate 320 g/ha) was 10%. The “post-emergence activity against BRSNW” value in data set [18] was 0%. For the same compound, in [25], the “pre-emergence activity against ORYZA” value is reported as 10%.
On to `CC(c1c(F)cccc1F)N1CCCC2(CCCN(C(C)c3c(F)cccc3F)C2=O)C1=O` (centres unmarked) [I-074], for which, in data set [1] (application rate 1280 g/ha), the “pre-emergence activity against ECHCG” value came to 90%. In addition, the “pre-emergence activity against LOLRI” value in data set [2] (application rate 1280 g/ha) is listed as 90%. Also, the “pre-emergence activity against SETVI” value in [4] (application rate 320 g/ha) and in [10] (application rate 320 g/ha) was 90% throughout. In [5] (application rate 320 g/ha), the “pre-emergence activity against STEME” value came to 90%. Also, in [6] (application rate 1280 g/ha), the “pre-emergence activity against POAAN” value turned out to be 100%. Moreover, the “pre-emergence activity against ALOMY” value in data set [26] stood at 90%; in data set [8], 80%. The “pre-emergence activity against VERPE” value in [27] worked out at 90%. Moreover, the “pre-emergence activity against DIGSA” value in [28] is given as 90%; in [19] (application rate 320 g/ha), 100%. For the same compound, the “pre-emergence activity against VIOTR” value in data set [22] was 90%. In addition, the “pre-emergence activity against ZEAMX” value in data set [23] (application rate 320 g/ha) is recorded as 0%. Further, in data set [11] (application rate 320 g/ha), the “pre-emergence activity against TRZAS” value was 20%. Further, the “pre-emergence activity against GLXMA” value in data set [12] (application rate 320 g/ha) was 0%. Besides, in data set [13] (application rate 80 g/ha), the “pre-emergence activity against BRSNW” value was 0%. Further, the “post-emergence activity against ZEAMX” value in data set [14] was found to be 0%. In addition, the “post-emergence activity against TRZAS” value in data set [15] came to 0%. Further, the “post-emergence activity against ORYZA” value in data set [16] turned out to be 0%. For the same compound, the “post-emergence activity against GLXMA” value in data set [17] (application rate 80 g/ha) is recorded as 0%. In addition, the “post-emergence activity against BRSNW” value in [18] amounted to 0%.
